Our source for the inhibition and EC50 values is patent publication US11485733B2, “Azaquinoline derivatives” (BAYER ANIMAL HEALTH GMBH, priority 2017, dated 2022).

The structures appear in SMILES notation.

In general, EC50 refers to the midpoint of the concentration-response curve.

Test [1] has as its system Nippostrongylus brasiliensis. Kind of test: Nippostrongylus brasiliensis (NIPOBR) adult worms, acetylcholine esterase readout. The following applies: read-out: activity (reduction of AChE compared to negative control); for inhibition at 1 µg/mL: at 1 μg/ml (1 ppm); for inhibition at 10 µg/mL: at 10 μg/ml (10 ppm). The method, then:
In Vitro Assay 3: Nippostrongylus brasiliensis (NIPOBR)
Adult Nippostrongylus brasiliensis were washed with saline buffer containing 100 U/ml penicillin, 0.1 mg/ml streptomycin and 2.5 μg/ml amphotericin B. Test compounds were dissolved in DMSO and worms were incubated in medium in a final concentration of 10 μg/ml (10 ppm) respectively 1 μg/ml (1 ppm). An aliquot of the medium was used to determine the acetylcholine esterase activity in comparison to a negative control. The principle of measuring acetylcholine esterase as readout for anthelmintic activity was described in Rapson et al (1986) and Rapson et al (1987).

The next test deals with Dirofilaria immitis. Kind of test: Dirofilaria immitis (DIROIM L4) larval motility. The following applies: 72 h, read-out: EC50 (reduction of motility).
Test [2] has as its system Dirofilaria immitis microfilariae. Nature of the test: Dirofilaria immitis microfilariae (DIROIM L1) motility. To be noted: 72 h, read-out: EC50 (reduction of motility).
The target in the next test is D. immitis Slo-1 (Dirofilaria immitis, UniProt I0DFK5). Kind of test: D. immitis Slo-1, action at a recombinant CHO cell line (membrane potential, FLIPR). The format is cell-based.
Sequence of D. immitis Slo-1 (I0DFK5 1-1119): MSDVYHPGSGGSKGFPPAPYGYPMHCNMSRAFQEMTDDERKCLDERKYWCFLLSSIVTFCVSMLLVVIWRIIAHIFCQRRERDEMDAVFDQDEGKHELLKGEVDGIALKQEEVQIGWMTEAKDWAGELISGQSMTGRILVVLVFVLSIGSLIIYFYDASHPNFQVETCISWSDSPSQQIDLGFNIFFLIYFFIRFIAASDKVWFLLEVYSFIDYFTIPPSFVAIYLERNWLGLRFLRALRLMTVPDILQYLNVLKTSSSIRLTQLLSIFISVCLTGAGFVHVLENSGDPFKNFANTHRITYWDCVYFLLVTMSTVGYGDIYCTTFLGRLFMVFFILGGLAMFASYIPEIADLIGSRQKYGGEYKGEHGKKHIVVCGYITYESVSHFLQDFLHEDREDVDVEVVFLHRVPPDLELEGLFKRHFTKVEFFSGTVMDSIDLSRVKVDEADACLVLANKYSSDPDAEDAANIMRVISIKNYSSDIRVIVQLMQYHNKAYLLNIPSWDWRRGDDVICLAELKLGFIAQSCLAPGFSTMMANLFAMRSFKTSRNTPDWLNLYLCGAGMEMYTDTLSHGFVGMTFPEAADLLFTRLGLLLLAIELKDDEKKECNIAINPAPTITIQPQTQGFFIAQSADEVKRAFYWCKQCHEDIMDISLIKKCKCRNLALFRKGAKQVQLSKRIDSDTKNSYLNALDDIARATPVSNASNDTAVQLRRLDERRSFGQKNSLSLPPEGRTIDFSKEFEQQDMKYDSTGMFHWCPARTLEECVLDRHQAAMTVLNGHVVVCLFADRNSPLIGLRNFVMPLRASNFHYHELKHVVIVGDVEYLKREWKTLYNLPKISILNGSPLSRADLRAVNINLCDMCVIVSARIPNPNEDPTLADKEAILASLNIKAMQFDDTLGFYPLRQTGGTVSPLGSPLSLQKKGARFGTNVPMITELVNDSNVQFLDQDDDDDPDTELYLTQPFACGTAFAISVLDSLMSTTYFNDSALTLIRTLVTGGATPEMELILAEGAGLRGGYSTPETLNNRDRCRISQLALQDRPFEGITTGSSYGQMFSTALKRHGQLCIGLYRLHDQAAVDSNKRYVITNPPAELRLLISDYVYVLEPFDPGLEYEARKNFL

In the case of `O=C(N[C@H]1CCOc2ccccc21)c1cnc2c(-c3cc(F)cc(F)c3F)ncc(F)c2c1N1CCOCC1` [Example T1-8, N-[(4S)-3,4-dihydro-2H-1-benzopyran-4-yl]-5-fluoro-4-(morpholin-4-yl)-8-(2,3,5-trifluorophenyl)-1,7-naphthyridine-3-carboxamide], the inhibition at 1 µg/mL in test [1] is above 80%. In addition, in test [1], the inhibition at 10 µg/mL is above 80%. The results for the 50% effective concentration (EC50) (with Dirofilaria immitis; in test [2]; on D. immitis Slo-1) were below 0.1 mg/L, below 0.1 mg/L and 0.0316 to 0.316 µM, respectively.

In the case of `COc1cnc(-c2cc(F)cc(F)c2F)c2ncc(C(=O)N[C@H]3CCOc4ccccc43)c(N(C)C)c12` [Example T1-13, N-[(4S)-3,4-dihydro-2H-1-benzopyran-4-yl]-4-(dimethylamino)-5-methoxy-8-(2,3,5-trifluorophenyl)-1,7-naphthyridine-3-carboxamide], the inhibition at 1 µg/mL in test [1] is above 80%. Besides, the inhibition at 10 µg/mL in test [1] was above 80%. For the same compound, the EC50 in the test with Dirofilaria immitis is below 0.1 mg/L; in test [2], below 0.1 mg/L; at D. immitis Slo-1 it was 0.0316 to 0.316 µM.

As to `COc1ncc2c(N3CCOCC3)c(C(=O)N[C@H]3CCOc4ccccc43)cnc2c1-c1cccc(Cl)c1Cl` [Example T2-6, 8-(2,3-dichlorophenyl)-N-[(4S)-3,4-dihydro-2H-1-benzopyran-4-yl]-7-methoxy-4-(morpholin-4-yl)-1,6-naphthyridine-3-carboxamide], the half-maximal effective concentration (EC50) with Dirofilaria immitis was below 0.1 mg/L; in test [2], below 0.1 mg/L; at D. immitis Slo-1 it was 0.00316 to 0.0316 µM.

In the case of `COc1ncc2c(N(C)C)c(C(=O)N[C@H]3CCOc4ccccc43)cnc2c1-c1cccc(Cl)c1Cl` [Example T2-7, 8-(2,3-dichlorophenyl)-N-[(4S)-3,4-dihydro-2H-1-benzopyran-4-yl]-4-(dimethylamino)-7-methoxy-1,6-naphthyridine-3-carboxamide], the concentration for a half-maximal effect (EC50) was below 0.1 mg/L in the test with Dirofilaria immitis, below 0.1 mg/L in test [2] and 0.00316 to 0.0316 µM at D. immitis Slo-1.

As for `COc1ncc2c(N(C)C)c(C(=O)N[C@H]3CCOc4ccccc43)cnc2c1-c1cc(Cl)cc(Cl)c1` [Example T2-8, 8-(3,5-dichlorophenyl)-N-[(4S)-3,4-dihydro-2H-1-benzopyran-4-yl]-4-(dimethylamino)-7-methoxy-1,6-naphthyridine-3-carboxamide], the inhibition at 1 µg/mL in test [1] is above 80%. For the same compound, the inhibition at 10 µg/mL in test [1] is above 80%. In addition, the half-maximal effective concentration (EC50) was below 0.1 mg/L with Dirofilaria immitis, below 0.1 mg/L in test [2] and 0.00316 to 0.0316 µM on D. immitis Slo-1.

For `COc1ncc2c(N3CCOCC3)c(C(=O)N[C@H]3CCOc4ccccc43)cnc2c1-c1cc(Cl)cc(Cl)c1` [Example T2-9, 8-(3,5-dichlorophenyl)-N-[(4S)-3,4-dihydro-2H-1-benzopyran-4-yl]-7-methoxy-4-(morpholin-4-yl)-1,6-naphthyridine-3-carboxamide], the inhibition at 1 µg/mL in test [1] was above 80%. In addition, in test [1], the inhibition at 10 µg/mL is above 80%. For the same compound, the figures for the EC50 (with Dirofilaria immitis; in test [2]; at D. immitis Slo-1) were below 0.1 mg/L, below 0.1 mg/L and 0.00316 to 0.0316 µM, respectively.

As to `COc1ncc(-c2cc(Cl)cc(Cl)c2)c2ncc(C(=O)N[C@H]3CCOc4ccccc43)c(N3CCOCC3)c12` [Example T2-10, 8-(3,5-dichlorophenyl)-N-[(4S)-3,4-dihydro-2H-1-benzopyran-4-yl]-5-methoxy-4-(morpholin-4-yl)-1,6-naphthyridine-3-carboxamide], the inhibition at 1 µg/mL in test [1] was above 80%. In addition, in test [1], the inhibition at 10 µg/mL is above 80%. For the same compound, the EC50 in the test on Dirofilaria immitis is below 0.1 mg/L; in test [2] it was below 0.1 mg/L; at D. immitis Slo-1, 0.0316 to 0.316 µM.

On to `CN(C)c1c(C(=O)N[C@H]2CCOc3ccccc32)cnc2c(-c3cc(F)cc(F)c3F)c(Cl)cnc12` [Example T3-5, 7-chloro-N-[(4S)-3,4-dihydro-2H-1-benzopyran-4-yl]-4-(dimethylamino)-8-(2,3,5-trifluorophenyl)-1,5-naphthyridine-3-carboxamide], for which the EC50 is below 0.1 mg/L in the test on Dirofilaria immitis, below 0.1 mg/L in test [2] and 0.00316 to 0.0316 µM at D. immitis Slo-1.

On to `O=C(N[C@H]1CCOc2ccccc21)c1cnc2c(-c3cc(F)cc(F)c3F)c(Cl)cnc2c1N1CCOCC1` [Example T3-6, 7-chloro-N-[(4S)-3,4-dihydro-2H-1-benzopyran-4-yl]-4-(morpholin-4-yl)-8-(2,3,5-trifluorophenyl)-1,5-naphthyridine-3-carboxamide], for which the EC50 with Dirofilaria immitis is below 0.1 mg/L; in test [2], below 0.1 mg/L; on D. immitis Slo-1 it was 0.00316 to 0.0316 µM.

For `CN(C)c1c(C(=O)N[C@H]2CCOc3ccccc32)cnc2c(-c3cc(Cl)cc(Cl)c3)c(Cl)cnc12` [Example T3-7, 7-chloro-8-(3,5-dichlorophenyl)-N-[(4S)-3,4-dihydro-2H-1-benzopyran-4-yl]-4-(dimethylamino)-1,5-naphthyridine-3-carboxamide], the EC50 with Dirofilaria immitis was below 0.1 mg/L; in test [2] it was below 0.1 mg/L; at D. immitis Slo-1, 0.00316 to 0.0316 µM.

Turning to `CN(C)c1c(C(=O)N[C@H]2CCOc3ccccc32)cnc2c(-c3cccc(Cl)c3Cl)c(Cl)cnc12` [Example T3-8, 7-chloro-8-(2,3-dichlorophenyl)-N-[(4S)-3,4-dihydro-2H-1-benzopyran-4-yl]-4-(dimethylamino)-1,5-naphthyridine-3-carboxamide], in test [1], the inhibition at 1 µg/mL is above 80%. Besides, in test [1], the inhibition at 10 µg/mL is above 80%. Further, the figures for the 50% effective concentration (EC50) (with Dirofilaria immitis; in test [2]; at D. immitis Slo-1) were below 0.1 mg/L, below 0.1 mg/L and 0.00316 to 0.0316 µM, respectively.

For `O=C(N[C@H]1CCOc2ccccc21)c1cnc2c(-c3cccc(Cl)c3Cl)c(Cl)cnc2c1N1CCOCC1` [Example T3-9, 7-chloro-8-(2,3-dichlorophenyl)-N-[(4S)-3,4-dihydro-2H-1-benzopyran-4-yl]-4-(morpholin-4-yl)-1,5-naphthyridine-3-carboxamide], the inhibition at 1 µg/mL in test [1] is above 80%. Moreover, the inhibition at 10 µg/mL in test [1] is above 80%. Besides, the EC50 in the test with Dirofilaria immitis is below 0.1 mg/L; in test [2], below 0.1 mg/L; on D. immitis Slo-1, 0.00316 to 0.0316 µM.

As to `COc1cnc2c(N(C)C)c(C(=O)N[C@H]3CCOc4ccccc43)cnc2c1-c1cc(Cl)cc(Cl)c1` [Example T3-10, 8-(3,5-dichlorophenyl)-N-[(4S)-3,4-dihydro-2H-1-benzopyran-4-yl]-4-(dimethylamino)-7-methoxy-1,5-naphthyridine-3-carboxamide], in test [1], the inhibition at 1 µg/mL is above 80%. In addition, the inhibition at 10 µg/mL in test [1] is above 80%. The results for the 50% effective concentration (EC50) (in the test with Dirofilaria immitis; in test [2]; at D. immitis Slo-1) were below 0.1 mg/L, below 0.1 mg/L and 0.00316 to 0.0316 µM, respectively.

For the compound `CN(C)c1c(C(=O)N[C@H]2CCOc3ccccc32)cnc2c(-c3cc(Cl)cc(Cl)c3)c(F)cnc12` [Example T3-11, 8-(3,5-dichlorophenyl)-N-[(4S)-3,4-dihydro-2H-1-benzopyran-4-yl]-4-(dimethylamino)-7-fluoro-1,5-naphthyridine-3-carboxamide], in test [1], the inhibition at 1 µg/mL is above 80%. In addition, the inhibition at 10 µg/mL in test [1] is above 80%. Also, the EC50 is below 0.1 mg/L in the test on Dirofilaria immitis, below 0.1 mg/L in test [2] and 0.00316 to 0.0316 µM at D. immitis Slo-1.

As to `COc1cnc2c(N(C)C)c(C(=O)N[C@H]3CCOc4ccccc43)cnc2c1-c1cccc(Cl)c1Cl` [Example T3-12, 8-(2,3-dichlorophenyl)-N-[(4S)-3,4-dihydro-2H-1-benzopyran-4-yl]-4-(dimethylamino)-7-methoxy-1,5-naphthyridine-3-carboxamide], the inhibition at 1 µg/mL in test [1] was above 80%. In addition, in test [1], the inhibition at 10 µg/mL is above 80%. The EC50 in the test with Dirofilaria immitis is below 0.1 mg/L; in test [2] it was below 0.1 mg/L; at D. immitis Slo-1, 0.00316 to 0.0316 µM.

Consider `COc1cnc2c(N3CCOCC3)c(C(=O)N[C@H]3CCOc4ccccc43)cnc2c1-c1cccc(Cl)c1Cl` [Example T3-14, 8-(2,3-dichlorophenyl)-N-[(4S)-3,4-dihydro-2H-1-benzopyran-4-yl]-7-methoxy-4-(morpholin-4-yl)-1,5-naphthyridine-3-carboxamide], for which the inhibition at 1 µg/mL in test [1] was above 80%. Also, in test [1], the inhibition at 10 µg/mL is above 80%. Also, the EC50 in the test with Dirofilaria immitis was below 0.1 mg/L; in test [2], below 0.1 mg/L; at D. immitis Slo-1, 0.00316 to 0.0316 µM.

As for `COc1cnc2c(N3CCOCC3)c(C(=O)N[C@H]3CCOc4ccccc43)cnc2c1-c1cc(F)cc(F)c1F` [Example T3-16, N-[(4S)-3,4-dihydro-2H-1-benzopyran-4-yl]-7-methoxy-4-(morpholin-4-yl)-8-(2,3,5-trifluorophenyl)-1,5-naphthyridine-3-carboxamide], the inhibition at 1 µg/mL in test [1] is above 80%. For the same compound, the inhibition at 10 µg/mL in test [1] was above 80%. Moreover, the EC50 in the test with Dirofilaria immitis was below 0.1 mg/L; in test [2] it was below 0.1 mg/L; at D. immitis Slo-1 it was 0.00316 to 0.0316 µM.

As to `O=C(N[C@H]1CCOc2ccccc21)c1cnc2c(-c3cccc(Cl)c3Cl)c(F)cnc2c1N1CCOCC1` [Example T3-18, 8-(2,3-dichlorophneyl)-N-[(4S)-3,4-dihydro-2H-1-benzopyran-4-yl]-7-fluoro-4-(morpholin-4-yl)-1,5-naphthyridine-3-carboxamide], the inhibition at 1 µg/mL in test [1] is above 80%. Moreover, the inhibition at 10 µg/mL in test [1] was above 80%. Also, the EC50 is below 0.1 mg/L with Dirofilaria immitis, below 0.1 mg/L in test [2] and 0.00316 to 0.0316 µM on D. immitis Slo-1.

In the case of `CN(C)c1c(C(=O)N[C@H]2CCOc3ccccc32)cnc2c(-c3cc(F)cc(F)c3F)c(F)cnc12` [Example T3-19, N-[(4S)-3,4-dihydro-2H-1-benzopyran-4-yl]-4-(dimethylamino)-7-fluoro-8-(2,3,5-trifluorophenyl)-1,5-naphthyridine-3-carboxamide], the inhibition at 1 µg/mL in test [1] was above 80%. For the same compound, the inhibition at 10 µg/mL in test [1] was above 80%. The results for the concentration giving a half-maximal response (EC50) (in the test with Dirofilaria immitis; in test [2]; at D. immitis Slo-1) were below 0.1 mg/L, below 0.1 mg/L and 0.00316 to 0.0316 µM, respectively.
